# Assay results published in patent US12708620B2, “Prodrugs and medical uses thereof” (priority 2018, dated 2026).
# Entries after “also recorded” stand apart in the source; their conditions may differ.
# Tests used:
# MiaPaca-2 = test: in vitro cell culture sensitivity in anoxic conditions; type: cell-based, human
# [1] = tested on: MDA-MB-231 tumor xenograft; test: triple negative breast cancer xenograft model; type: in vivo, BALB/c Nude Mice; conditions: MDA-MB-231 xenograft; single treatment cycle
# [2] = tested on: NCI-H1650 tumor xenograft; test: lung cancer (NSCLC) xenograft model; type: in vivo, BALB/c Nude Mice
# Description: (§1) All animal models were established as xenograft model in BALB/c Nude Mice (6-8 weeks old, 17-23 grams, maintained in standard conditions and diet), following approved IACUC (Institutional Animal Care and Use Committees) protocols. Cpd.11 Ms was formulated using 2% dimethyl sulfoxide (DMSO in water for injection, starting from a Cpd.11 Ms main preparation (100-60 mg/ml in 2% DMSO in water for injection).
# After tumor cell inoculation, the animals were checked daily for morbidity and mortality. Before commencement of treatment all animals were weighed and the tumor volumes were measured using a caliper. The treatments were started when the mean tumor size reached approx. 250 mm^3. […] At the time of routine monitoring, the animals were checked for any effects of tumor growth and treatments on normal behavior such as mobility, visual estimation of food and water consumption, body weight gain/loss (body weights were measured daily during the 5-day treatment and thrice weekly after treatment), eye/hair matting and any other abnormal effect. Death and observed clinical signs were recorded on the basis of the numbers of animals within each subset. […] The surrogate endpoint for survival was calculated and indicated as TVx4 (initial tumor volume times 4). […] All data were analyzed in SPSS (Statistical Product and Service Solutions) version 18.0 (IBM, Armonk, NY, U.S.). […]
# [3] = tested on: pH2AX (Histone H2A.X, Phospho S139) in DMS 114 xenograft; test: DNA damage by pH2AX staining with pimonidazole colocalization; type: in vivo, BALB/c Nude Mice; conditions: 6 hours post single 600 mg/kg
# Description: To evaluate the impact of Cpd.11 Ms treatment on the induction of DNA damage, histological analysis of pH2AX staining and investigated colocalization of pH2AX and pimonidazole staining was performed in the small cell lung cancer model, DMS 114. DNA damage was assessed at 6 hours post a single administration of Cpd.11 Ms at 600 mg/kg. Pimonidazole Hydrochloride and pH2AX (Histone H2A.X, Phospho S139) antibodies are commercially available (Anti-Pimonidazole Hydrochloride, HP FITC Mab-1, HPI Hypoxyprobe Inc; Anti-Histone H2A.X (Phospho S139) antibody [EP854 (2) Y] ChIP Grade, ab81299, Abcam). From each xenograft sample, 3 non-sequential, 5 μm section levels with 50 μm spacing between each level were obtained. From each level, two or three serial sections were produced and collected on two or three slides depending upon the staining required: i) H&E and Pimonidazole or ii) H&E, Pimonidazole and pH2AX. Sections were then dried overnight at ~37° C. prior to staining. The H&Es were performed on a Leica ST4040 staining platform using harris haematoxylin and 1% eosin. Following antigen retrieval and subsequent protein blocking, the pH2AX antibody was incubated on the study tissue sections at a concentration of 1:48000 for 60 minutes. Following quenching of endogenous Horse Radish Peroxidase (HRP) activity using 3% hydrogen peroxide (aqueous), binding of pH2AX was visualised using a polymer based HRP driven detection system and ImmPACT DAB chromogen giving a brown reaction product at the site of antibody binding. A haematoxylin nuclear counterstain was then applied to the tissue sections. The Pimonidazole (FITC conjugated) antibody was incubated on the study tissue sections at a concentration of 1:5000 for 60 minutes. Following quenching of endogenous Horse Radish Peroxidase (HRP) activity using 3% hydrogen peroxide (aqueous), binding of Pimonidazole was visualised using an HRP conjugated rabbit anti-FITC secondary antibody (HPI Hypoxyprobe Inc, anti-FITC-HRP) and ImmPACT DAB chromogen giving a brown reaction product at the site of antibody binding. […]
# [4] = tested on: MDA-MB-436 tumor xenograft; test: triple negative breast cancer xenograft model; type: in vivo, BALB/c Nude Mice; conditions: MDA-MB-436 xenograft, single treatment cycle; for Anti-tumor effect: 600 mg/kg IP, hypoxic status confirmed, methanesulfonate, 600 mg/kg
# Description: as §1
# After tumor cell inoculation, the animals were checked daily for morbidity and mortality. Before commencement of treatment all animals were weighed and the tumor volumes were measured using a caliper. The treatments were started when the mean tumor size reached approx. 250 mm^3. Each treated/control group contained 10 mice that were randomly assigned and injected daily for 5 days. The date of tumor cell inoculation was denoted as day 0 (thus injections were performed at day 1, 2, 3, 4, and 5). At the time of routine monitoring, the animals were checked for any effects of tumor growth and treatments on normal behavior such as mobility, visual estimation of food and water consumption, body weight gain/loss (body weights were measured daily during the 5-day treatment and thrice weekly after treatment), eye/hair matting and any other abnormal effect. Death and observed clinical signs were recorded on the basis of the numbers of animals within each subset. Tumor volumes were measured daily during the 5-day treatment and thrice weekly after treatment in two dimensions using a caliper, and the volume was expressed in mm3 using the formula: V=0.5 a×b2 where a and b are the long and short diameters of the tumor, respectively. The entire procedures of dosing as well as tumor and body weight measurement were conducted in a Laminar Flow Cabinet. Individual mice were euthanized by cervical dislocation when the tumor size reached 1400-1600 mm3. The surrogate endpoint for survival was calculated and indicated as TVx4 (initial tumor volume times 4). Statistical analysis of difference in tumor volume among the groups was conducted at the end of experiment using Independent-Samples T Test. All data were analyzed in SPSS (Statistical Product and Service Solutions) version 18.0 (IBM, Armonk, NY, U.S.). P-values were rounded to three decimal places, with the exception that raw P-values less than 0.001 were stated as P<0.001. All tests were two-sided. P<0.05 was considered to be statistically significant.
# For the MDA-MB-436 tumor (ATCC: HTB-130; Passage: P4) cells were maintained in vitro as a monolayer culture in L-15 medium supplemented with 10% heat inactivated fetal bovine serum at 37° C. in an atmosphere of 100% air. […] The cells growing in an exponential growth phase were harvested and counted for tumor inoculation. […]
compound,measurement,setting,value
"CCN1CCN(C(=O)c2cc(N(CCBr)CCOS(C)(=O)=O)c(S(C)(=O)=O)cc2[N+](=O)[O-])CC1.CS(=O)(=O)O [Cpd.11 Ms, 4-(5-((2-bromoethyl) (2-((methylsulfonyl)oxy)ethyl)amino)-4-(methylsulfonyl)-2-nitrobenzoyl)-1-ethylpiperazin-1-ium methanesulfonate]",sensitivity in anoxic conditions in vitro,MiaPaca-2,highly Cpd.11 Ms-sensitive
same,tumour growth,[1],tumour growth rate reduction
same,Anti-tumor effect,"[2]; 600 mg/kg IP, hypoxic status confirmed","Clear impact,"
same,median surrogate survival index,[2]; single treatment cycle,significant effect
same,"DNA damage (pH2AX) in normoxic areas, treated vs vehicle treated animals",[3],not statistically significantly different
same,"DNA damage (pH2AX), hypoxic (pimonidazole positive) vs normoxic (pimonidazole negative) areas in treated animals","[3]; P=0.023, methanesulfonate, 600 mg/kg",significantly higher DNA damage; also recorded: mostly detected in the hypoxic areas
same,"DNA damage (pH2AX) in hypoxic (pimonidazole positive) areas, treated vs vehicle treated animals",[3]; P=0.038,significant increase in DNA damage
same,Anti-tumor effect,[4]; listed as Cpd.11Ms,"Strong impact,"
same,Anti-tumor effect,[4],significant regression of the tumour
same,effects on body weight,[4]; IP,absence of effects on body weight
same,median surrogate survival index (TVx4) compared to vehicle treated animals,[4]; IP,more than double
